Format in all cases: ADME, organism-based
Data set [1] is described as follows: Volume of distribution at steady state in Sprague-Dawley rat at 10 mg/kg, po or 1 mg/kg, iv. Conditions: in vivo, read-out: Vdss.
Data set [2] can be described thus: Oral bioavailability in Sprague-Dawley rat at 10 mg/kg. Conditions: in vivo.
Data set [3] in a line: Clearance in Sprague-Dawley rat at 10 mg/kg, po or 1 mg/kg, iv relative to hepatic blood flow. Conditions: in vivo.

The term bioavailability denotes dose-corrected exposure relative to a reference, in per cent. Regarding `CS(=O)(=O)c1cc(CNC(=O)c2cncc3c2cnn3-c2ccc(F)cc2)ccn1`, in data set [1], the Vd turned out to be 1.2 L/kg. The same compound registered a bioavailability in data set [2] of 29%. In addition, the CL in data set [3] is recorded as 8%.

For the origin of these results see ChEMBL document CHEMBL4330105, “Identification of novel azaindazole CCR1 antagonist clinical candidates” (Bioorg Med Chem Lett, 2019).
